From US20210361750A1, “Anti-Viral Lactoferrin Facemask” (priority 2020, published 2021) come the findings set out here.

One data set deals with SARS-CoV-2. As to the kind of experiment: Cyclodextrin testing: antiviral activity against SARS-CoV-2 in Vero E6 cells (CPE). The class given is cell-based. Conditions: pH 7; lactoferrin alone 10 mg/mL, cyclodextrin alone 10 mg/mL, or lactoferrin 5 mg/mL + cyclodextrin 10 mg/mL.
The subject of a further data set is Vero E6 cells. Particulars: control without virus, 10 mg/mL.

For “cyclodextrin [cyclodextrin alone, reference compound]”, in the data set on SARS-CoV-2, the “antiviral activity (cytopathic effect)” value is reported as “none of the experiments showed antiviral activity”. Besides, in the data set with Vero E6 cells, the “cytopathic effect on the cells” value is “neither the lactoferrin alone (10 mg/mL) or the cyclodextrin alone (10 mg/mL) had a cytopathic effect”.
